For twelve compounds, inhibition and IC50 results are on record in patent publication US6333338A, “Bispiperidines as antithrombotic agents” (Laboratoire L. Lafon, priority 1998, dated 2001).

Structures can show the parent of a compound that is named as a salt. Where two headings read alike, the source gives them in different places.

Broadly, the IC50 is the concentration that inhibits the measured activity by half.

Assay [1] concerns guinea pig platelets. In words: Ex vivo/vitro inhibition of platelet aggregation after administration via the gastric route in guinea pigs. Also on record: species or system guinea pig (Dunkin-Hartley). The following applies: Cavia porcellus, Platelet, fasted guinea pigs. Here is the method: A study of the inhibitory activity of the compounds of formula I on platelet aggregation was carried out in vitro, i.e. by direct contact of solutions of variable concentrations of the compounds with platelets freshly separated from a sample of total blood, taken under standardized conditions, from laboratory animals (guinea pigs) and from healthy human subjects who have not received any substances or drugs that might interfere with blood clotting. The anti-platelet-aggregating activity was also studied ex vivo/vitro, i.e. after administration of the substances claimed to guinea pigs to measure the intensity and duration of the anti-aggregating action induced by the fraction of the test product absorbed and circulating in the blood. Evaluation of the anti-platelet-aggregating activity of the compounds is carried out in the same guinea pigs as those mentioned above (Dunkin-Hartley strain). […] The allocation of the treatments to the animals is random. The blood is taken and then treated under the same conditions as those described above for the in vitro studies. The results of the inhibition of the platelet aggregation obtained for each test concentration make it possible to calculate the IC50 concentration of each test product and the kinetics of the inhibitory effect and its duration of action.

A further assay has as its system human platelets. In words: In vitro inhibition of collagen-induced platelet aggregation, human platelets (PRP). The assay is classed as cell-based. The following applies: 0.05 h, collagen 5 μg/ml, 3 minutes of contact at 37° C., read-out: IC50 (M) in vitro, Man. Here is the method:
(§1) A study of the inhibitory activity of the compounds of formula I on platelet aggregation was carried out in vitro, i.e. by direct contact of solutions of variable concentrations of the compounds with platelets freshly separated from a sample of total blood, taken under standardized conditions, from laboratory animals (guinea pigs) and from healthy human subjects who have not received any substances or drugs that might interfere with blood clotting. The anti-platelet-aggregating activity was also studied ex vivo/vitro, i.e. after administration of the substances claimed to guinea pigs to measure the intensity and duration of the anti-aggregating action induced by the fraction of the test product absorbed and circulating in the blood.
Venous blood is taken from a group of ten healthy human subjects of the same age, by puncture into a vein of the fold of the elbow and is collected in a glass tube containing aqueous 0.129 M sodium citrate solution (1 volume of citrate solution per 9 volumes of blood). Each tube is then centrifuged a first time at 20° C. and 100 g for 15 minutes in order to obtain the platelet-rich plasma (PRP); after removing this PRP, the tube is again centrifuged at 2000 g for 15 minutes in order this time to remove the platelet-poor plasma (PPP).
For each identified sample of PRP, the platelets are counted using a Coulter ZM counter. Each sample is then used to study the variation in inhibition of the platelet aggregation triggered by the addition of a Chromo-par Reagent collagen glucose solution from Coultronics (used at a concentration of 5 μg/ml) as a function of the addition of increasing concentrations of each compound in a range covering the interval 10^-8 M→10^-5 M, (example of concentrations: 10^-8 M, […], 6×10^-6 M, 4×10^-6 M, 2×10^-6 M, 10^-6 M, […], 10^-5 M). Beforehand, for each compound, an aqueous 10^-3 M solution is prepared. A control test intended to check the possible effect of the solvents (reference value) on the platelet aggregation is introduced into each measurement series, and is measured after 3 minutes of contact at 37° C. with agitation.
From the percentages of inhibition of the platelet aggregation measured for each concentration of each compound, the 50% inhibitory concentration (IC50) is calculated.

The test system of assay [2] is guinea pig platelets. As to the kind of experiment: In vitro inhibition of collagen-induced platelet aggregation, guinea pig platelets (PRP). As to conditions: Cavia porcellus, Platelet, 0.05 h, collagen 1 μg/ml, 3 minutes of contact at 37° C. Type of assay: cell-based, guinea pig (male Dunkin-Hartley). The protocol: as §1
Blood is taken by intracardiac puncture from male Dunkin-Hartley guinea pigs (weighing about 330 g), at a rate of 4.5 ml per 0.5 ml of trisodium citrate (concentration of the aqueous solution: 1.55%) in order to prevent all trace of clotting. The platelet-rich plasma (PRP) is obtained by centrifuging the tubes of total blood for 15 minutes at 150 g.
The PRPs are collected as "pools". The platelets contained in these pools are counted using a Coulter ZM haematology automatic device: if necessary, a dilution is carried out in order for the platelet concentration in the plasma to be between 200,000 and 400,000 platelets/mm^3. Simultaneously, other samples of these pools serve to prepare the platelet-poor plasma (PPP) by centrifugation at 1500 g for 15 minutes.
The kinetic study of the platelet aggregation is carried out by adding a collagen solution (1 μg/ml) to a volume of PRP, using a Chrono-log Corporation aggregometer (490-D1 or 560 VS) which uses an optical detection of the appearance of the thrombus.
The measurements of the aggregation inhibition are carried out after 3 minutes of contact at 37° C. with agitation.

Setting [3] is: 1 h before blood sampling, read-out: % of g.r. inhibition guinea pig ex vivo, d = 10 mg/kg, 1 h.
[4] abbreviates: 2 h before blood sampling, read-out: % of g.r. inhibition guinea pig ex vivo, d = 10 mg/kg, 2 h.
[5] abbreviates: 1 h before blood sampling, read-out: % of g.r. inhibition guinea pig ex vivo, d = 150 mg/kg, 1 h.
Where [6] appears, read: 2 h before blood sampling, read-out: % of g.r. inhibition guinea pig ex vivo, d = 150 mg/kg, 2 h.

With `O=C(CNC(=O)C(CCC1CCNCC1)CCC1CCNCC1)NCC(NS(=O)(=O)c1ccc(Cl)cc1)C(=O)O` (centres unmarked) [Example 34, 2-([(4-Chlorophenyl)sulphonyl]amino)-3-{[2-({4-(4-piperidyl)-2-[2-(4-piperidyl)ethyl]butanoyl}amino)acetyl]amino}propanoic Acid Dihydrochloride], the inhibition at 10 mg/kg with guinea pig platelets [1] (setting [3]) is -19%; in the assay on guinea pig platelets [1] (setting [4]), -8%. For the same compound, the IC50 in the assay with human platelets was 8.9e-07 M; with guinea pig platelets [2], 500 nM.

As for `CN(C)c1cccc2c(S(=O)(=O)NC(CNC(=O)CNC(=O)C(CCC3CCNCC3)CCC3CCNCC3)C(=O)O)cccc12` (centres unmarked) [Example 49, 2-({[5-(Dimethylamino)-1-naphthyl)sulphonyl}amino)-3-{[2-({4-(4-piperidyl)-2-[2-(4-piperidyl)ethyl]butanoyl}amino)acetyl]amino}propanoic Acid Trihydrochloride], the inhibition at 10 mg/kg in the assay with guinea pig platelets [1] (setting [3]) is -69%; in the assay on guinea pig platelets [1] (setting [4]), -68%. The IC50 in the assay with human platelets came out at 5.6e-08 M; in the assay on guinea pig platelets [2], 49 nM.

For the compound `O=C(O)C[C@H](NC(=O)CNC(=O)C(CCC1CCNCC1)CCC1CCNCC1)C(=O)N1CCC(Cc2ccccc2)CC1` [Example 29, (3S)-4-oxo-4-(4-Benzylpiperidino)-3-{[2-({4-(4-piperidyl)-2-[2-(4-piperidyl)ethyl]butanoyl}amino)acetyl]amino}-butanoic Acid Dihydrochloride], the inhibition at 150 mg/kg in the assay on guinea pig platelets [1] (setting [5]) is -35%; in the assay on guinea pig platelets [1] (setting [6]), -23%. Further, the IC50 was 1e-05 M in the assay with human platelets and 13000 nM in the assay on guinea pig platelets [2].

As for `COc1ccc(S(=O)(=O)N[C@@H](CNC(=O)CNC(=O)C(CCC2CCNCC2)CCC2CCNCC2)C(=O)O)c2ccccc12` [Example 52, 2-([(4-Methoxy-1-naphthyl)sulphonyl]amino)-3-{[2-({4-(4-piperidyl)-2-[2-(4-piperidyl)ethyl]butanoyl}amino)acetyl]amino}propanoic Acid Dihydrochloride], the inhibition at 10 mg/kg in the assay on guinea pig platelets [1] (setting [3]) was -58%; in the assay with guinea pig platelets [1] (setting [4]) it was -30%. In addition, the figures for the IC50 with human platelets and with guinea pig platelets [2] were 9.3e-08 M and 35 nM, respectively.

`CCCc1ccc(S(=O)(=O)NC(CNC(=O)CNC(=O)C(CCC2CCNCC2)CCC2CCNCC2)C(=O)O)cc1` (centres unmarked) [Example 28, 2-{[(4-Propylphenyl)sulphonyl]amino}-3-{[2-({4-(4-piperidyl)-2-[2-(4-piperidyl)ethyl]butanoyl}amino)acetyl]amino}propanoic Acid Dihydrochloride]: the inhibition at 10 mg/kg with guinea pig platelets [1] (setting [3]) is -18%. In addition, the inhibition at 150 mg/kg in the assay with guinea pig platelets [1] (setting [5]) was -73%; with guinea pig platelets [1] (setting [6]), -75%. Besides, the values for the IC50 in the assay with human platelets and in the assay on guinea pig platelets [2] were 1.1e-06 M and 1500 nM, respectively.

Take `O=C(CNC(=O)C(CCC1CCNCC1)CCC1CCNCC1)NCC(NS(=O)(=O)c1ccccc1)C(=O)O` (centres unmarked) [Example 26, 2-[(Phenylsulphonyl)amino]-3-{[2-({4-(4-piperidyl)-2-[2-(4-piperidyl)ethyl]butanoyl}amino)acetyl]amino}propanoic Acid Dihydrochloride]: the inhibition at 10 mg/kg with guinea pig platelets [1] (setting [3]) is -41%; with guinea pig platelets [1] (setting [4]), -20%. Moreover, the inhibition at 150 mg/kg in the assay with guinea pig platelets [1] (setting [5]) is -77%; with guinea pig platelets [1] (setting [6]) it was -68%. In addition, the IC50 amounted to 5.3e-07 M with human platelets and 440 nM in the assay with guinea pig platelets [2].

In the case of `O=C(O)CC(NC(=O)CNC(=O)C(CCC1CCNCC1)CCC1CCNCC1)c1cccnc1` (centres unmarked) [Example 12, 3-(3-Pyridyl)-3-{[2-({4-(4-piperidyl)-2-[2-(4-piperidyl)ethyl]butanoyl}amino)acetyl]amino}propanoic Acid Trihydrochloride], the inhibition at 150 mg/kg in the assay with guinea pig platelets [1] (setting [5]) was -74%; in the assay with guinea pig platelets [1] (setting [6]), -68%. Also, the figures for the IC50 in the assay with human platelets and with guinea pig platelets [2] were 1.5e-06 M and 980 nM, respectively.

Regarding `O=C(CNC(=O)C(CCC1CCNCC1)CCC1CCNCC1)NC[C@H](NS(=O)(=O)c1ccc2ccccc2c1)C(=O)O` [Example 27, (2S)-2-[(2-Naphthylsulphonyl)amino]-3-{[2-({4-(4-piperidyl)-2-[2-(4-piperidyl)ethyl]butanoyl}amino)acetyl]amino}propanoic Acid Dihydrochloride], the IC50 in the assay on human platelets was found to be 4.4e-08 M; in the assay on guinea pig platelets [2], 19 nM.

In the case of `O=C(O)CC(NC(=O)CNC(=O)C(CCC1CCNCC1)CCC1CCNCC1)c1ccc2c(c1)OCO2` (centres unmarked) [Example 5, 3-(1,3-Benzodioxol-5-yl)-3-{[2-({4-(4-piperidyl)-2-[2-(4-piperidyl)ethyl]butanoyl}amino)acetyl]amino}-propanoic Acid Dihydrochloride], the inhibition at 10 mg/kg in the assay on guinea pig platelets [1] (setting [3]) is -15%. In addition, the inhibition at 150 mg/kg was -63% with guinea pig platelets [1] (setting [5]) and -66% in the assay with guinea pig platelets [1] (setting [6]). Further, the figures for the IC50 with human platelets and in the assay on guinea pig platelets [2] were 2.8e-07 M and 2000 nM, respectively.

For the compound `COc1ccc(C(CC(=O)O)NC(=O)CNC(=O)C(CCC2CCNCC2)CCC2CCNCC2)cc1OC` (centres unmarked) [Example 8, 3-(3,4-Dimethoxyphenyl)-3-{[2-({4-(4-piperidyl)-2-[2-(4-piperidyl)ethyl]butanoyl}amino)acetyl]amino}propanoic Acid Dihydrochloride], the inhibition at 150 mg/kg in the assay with guinea pig platelets [1] (setting [5]) was -10%; with guinea pig platelets [1] (setting [6]) it was -31%. In addition, the IC50 with human platelets came out at 1.6e-06 M; in the assay with guinea pig platelets [2] it was 35000 nM.

For the compound `COc1ccc2cc(S(=O)(=O)N[C@@H](CNC(=O)CNC(=O)C(CCC3CCNCC3)CCC3CCNCC3)C(=O)O)ccc2c1` [Example 36, (2S)-2-{[(6-Methoxy-2-naphthyl)sulphonyl]amino}-3-{[2-({4-(4-piperidyl)-2-[2-(4-piperidyl)ethyl]butanoyl}amino)acetyl]amino}propanoic Acid Dihydrochloride], the results for the inhibition at 10 mg/kg with guinea pig platelets [1] (setting [3]) and in the assay on guinea pig platelets [1] (setting [4]) were -63% and -69%, respectively. Moreover, the IC50 with human platelets is 7.2e-08 M; in the assay with guinea pig platelets [2], 41 nM.

Take `COc1cc2ccc(S(=O)(=O)N[C@@H](CNC(=O)CNC(=O)C(CCC3CCNCC3)CCC3CCNCC3)C(=O)O)cc2cc1OC` [Example 53, 2-{[(6,7-Dimethoxy-2-naphthyl)sulphonyl]amino}-3-{[2-({4-(4-piperidyl)-2-[2-(4-piperidyl)ethyl]butanoyl}amino)acetyl]amino}propanoic Acid Dihydrochloride]: the inhibition at 10 mg/kg in the assay on guinea pig platelets [1] (setting [3]) is -73%; in the assay with guinea pig platelets [1] (setting [4]), -9%. Further, the IC50 turned out to be 7.3e-08 M in the assay on human platelets and 37 nM with guinea pig platelets [2].
